From article PMC10600185, “Development and pharmaceutical investigation of novel cervical cancer-targeting and redox-responsive melittin conjugates” (Scientific Reports, 2023)
In brackets after ≈: the same amount, converted by molar mass.

Legend:
cell lines = assay: Cytotoxicity of the targeting peptide alone on the cell lines; assay type: cell-based; conditions: tested alone on cell lines, data not shown
Protocol: (§1) C-33A ([…], ATCC), HeLa ([…], ATCC), 3T3 (CRL-1658™, ATCC), Normal Skin Fibroblast (CRL-2091™, ATCC) and MCF-7 (HTB-22™, ATCC) cell lines were cultured in complete EMEM, DMEM, DMEM, EMEM, and EMEM (containing 1% Pen/Strep antibiotic and 10% FBS), respectively. Cells from the different lines were seeded at a density of 5 × 10^4 cells/well in 100 µL medium placed in a flat-bottom 96-well plate and incubated at 5% CO2 and 37 °C. After 24 h, the medium was discarded from the 96-well plate. Serial dilutions of peptide/conjugate (i.e., 256–1 µg/mL) were prepared in triplicate in 100 µL complete medium then added onto each well and incubated at 5% CO2 and 37 °C for 24 h. The cytotoxicity was determined by MTT test (MTT, Cell Proliferation Kit, Roche) and measured at 550–690 nm on a microplate reader. The cell cytotoxicity was calculated with respect to control groups treated with only complete medium.

E. coli 25922 = assay: Minimum inhibitory concentration, E. coli; assay type: cell-based, Escherichia coli; set-up: key: No inhibitory effects were observed at any of the concentrations tested in the areas marked “X” and bacterial growth was seen; conditions: MHB, two-fold dilutions 1024–0.5 µg/mL, 37 °C overnight, OD 600 nm
Protocol: (§2) The MIC of the conjugates on E. coli and S. aureus were determined. 95 µL of the MHB containing serial two-fold dilutions of each peptide/conjugate were added to a round-bottom 96-well plate from a maximum concentration of 1024 µg/mL to 0.5 µg/mL. Bacterial samples were taken from an exponentially growing culture in MHB and adjusted to 1.5 × 10^6 CFU/mL. 5 µL of the prepared bacterial suspension was added to each well and incubated at 37 °C, overnight. The bacterial growth was measured using a microplate reader (Gen5 Synergy HT, Biotek) at 600 nm. Broth containing only bacteria was used as a positive control while broth without bacteria was used as a negative control.

[1] = HPLC % ACN at elution as measure of hydrophobicity; assay type: physicochemical; conditions: semi-preparative RP-HPLC, C-18 column; for HPLC gradient (ACN %) of the purified peak: 0–100% ACN (0.025% TFA) gradient, 30 min for FA conjugates, 40 min for Target conjugates, % ACN used as hydrophobicity
Protocol: The peptide/conjugate was purificated and analyzed (data not shown) using HPLC (Agilent Technologies, USA) with C-18 column (RPC 250 × 10 mm ID hydrophobic 6 µm, Agilent VariTide). For the CM–FA and MC–FA conjugates’ purification, we used a 0–100% ACN (0.025% TFA) gradient for 30 min, and for the CM–Target, and MC–Target conjugates, we used a 0–100% ACN (0.025% TFA) gradient for 40 min. Peptide methods for HPLC purification are provided in Supp. Data 1. A Nicolet iS10 FT-IR was used to obtain infrared spectra of the peptide/conjugates in the range of 4000–500 cm^−1. The chemical structure of the peptide/conjugates was characterized by proton nuclear resonance (^1H NMR) spectroscopy using a 400-MHz Burker NMR spectrometer in DMSO-d6. To evaluate the molecular weight of the synthesized peptide, LC–MS/MS (6420 Triple Quad, Agilent Technologies) was used.

S. aureus 25923 = assay: Minimum inhibitory concentration, S. aureus; assay type: cell-based, Staphylococcus aureus; set-up: key: No inhibitory effects were observed at any of the concentrations tested in the areas marked “X” and bacterial growth was seen; conditions: MHB, two-fold dilutions 1024–0.5 µg/mL, 37 °C overnight, OD 600 nm
Protocol: as §2

human red blood cells = assay: Hemolytic activity; assay type: cell-based; conditions: human erythrocytes in tris-saline pH 7.2, 256–4 µg/mL, 37 °C, 1 h, absorbance 414 nm, triplicate
Protocol: 30 µL of fresh human blood was added to 10 mL of autoclaved tris-saline (10 mM tris, 150 mM NaCl, pH 7.2) and centrifuged at 1500 rpm for 5 min three times. 100 µL of the blood mix was added to each well of a round-bottom 96-well plate. Concentrations of freshly prepared peptide/conjugate (i.e., ranging from 256–4 µg/mL) in tris-saline (100 µL of total volume) were added to the 96-well plate containing the blood mix and the plate kept at 37 °C for 1 h. Triton X-100 in 10% DMSO-treated blood mix and blood mix without addition were used as positive and negative controls, respectively. Next, the plate was centrifuged for 10 min at 1500 rpm. The supernatants were taken into a new round-bottom 96-well plate and measured at 414 nm using a microplate reader. All samples were used as a triplicate.

[2] = MTT cytotoxicity assay, NSF; assay type: cell-based; conditions: human, normal skin fibroblast (NSF) cells, 24 h treatment, serial dilutions 256–1 µg/mL, concentration by modified Mel peptide content, mean of three replicates
Protocol: as §1

[3] = MTT cytotoxicity assay, 3T3; assay type: cell-based; conditions: mouse, 3T3 cells (embryonic fibroblasts), 24 h treatment, serial dilutions 256–1 µg/mL, concentration by modified Mel peptide content, mean of three replicates
Protocol: as §1

HeLa cells = assay: ROS assay (DCFDA), HeLa; assay type: cell-based, human; conditions: 200 µM TBHP positive control, Ex/Em 485/535 nm, data not shown
Protocol: (§3) To evaluate the ROS activity of peptide/conjugates, a ROS kit (DCFDA/H2DCFDA—Cellular ROS Assay Kit, Abcam) was applied to C33A, HeLa, and Normal Skin Human Fibroblast cells. 25,000 cells/well were seeded on a flat-bottom 96-well plate and incubated at 37 °C and 5% CO2. After 24 h, the media was discarded, and the wells were washed with 1 × buffer. DCFDA was then added to wells (except for non-stained control cells) and all plates were incubated for 45 min at 37 °C and 5% CO2 in the dark. […] A positive control (TBHP) was also applied. The results were assessed using a microplate reader (Varioskan Flash, Thermo Scientific) at Ex/Em: 485/535 nm. The negative control (non-stained cells) was subtracted from the cell control and drug samples for calculation.

NSF cells = assay: ROS assay (DCFDA), NSF; assay type: cell-based, human; conditions: 200 µM TBHP positive control, Ex/Em 485/535 nm, data not shown
Protocol: as §3

C33A cells = assay: ROS assay (DCFDA), C33A; assay type: cell-based, human; conditions: 200 µM TBHP positive control, Ex/Em 485/535 nm, data not shown
Protocol: as §3

| Molecule | HPLC gradient (ACN %) of the purified peak [1] | IC50 at 24 h [2] [µg/mL] | IC50 at 24 h [3] [µg/mL] | other results |
| --- | --- | --- | --- | --- |
| CKQNLAEG [Targeting peptide, CSP-KQ peptide (CKQNLAEG), specific to cervical squamous cell carcinoma tissue] | 53–57% | – | – | Toxicity of the peptide alone on cell lines (cell lines): non-toxic; Minimum inhibitory concentration, E. coli 25922 (E. coli 25922): X; Minimum inhibitory concentration, S. aureus 25923 (S. aureus 25923): X |
| CC[C@H](C)[C@H](NC(=O)CNC(=O)[C@@H](N)CS)C(=O)NCC(=O)N[C@@H](C)C(=O)N[C@H](C(=O)N[C@@H](CC(C)C)C(=O)N[C@@H](CCCCN)C(=O)N[C@H](C(=O)N[C@@H](CC(C)C)C(=O)N[C@H](C(=O)N[C@H](C(=O)NCC(=O)N[C@@H](CC(C)C)C(=O)N1CCC[C@H]1C(=O)N[C@@H](C)C(=O)N[C@@H](CC(C)C)C(=O)N[C@H](C(=O)N[C@@H](CO)C(=O)N[C@@H](Cc1c[nH]c2ccccc12)C(=O)N[C@H](C(=O)N[C@@H](CCCCN)C(=O)N[C@@H](CCCNC(=N)N)C(=O)N[C@@H](CCCCN)C(=O)N[C@@H](CCCNC(=N)N)C(=O)N[C@@H](CCC(N)=O)C(=O)N[C@@H](CCC(N)=O)C(N)=O)[C@@H](C)CC)[C@@H](C)CC)[C@@H](C)O)[C@@H](C)O)C(C)C)C(C)C [C-Mel] | 77–79% | 53.4 (≈ 18.1 µM) | 84 (≈ 28.5 µM) | Hemotoxicity ranking among peptides/conjugates (human red blood cells): highest hemotoxicity |
| CC[C@H](C)[C@H](NC(=O)CN)C(=O)NCC(=O)N[C@@H](C)C(=O)N[C@H](C(=O)N[C@@H](CC(C)C)C(=O)N[C@@H](CCCCN)C(=O)N[C@H](C(=O)N[C@@H](CC(C)C)C(=O)N[C@H](C(=O)N[C@H](C(=O)NCC(=O)N[C@@H](CC(C)C)C(=O)N1CCC[C@H]1C(=O)N[C@@H](C)C(=O)N[C@@H](CC(C)C)C(=O)N[C@H](C(=O)N[C@@H](CO)C(=O)N[C@@H](Cc1c[nH]c2ccccc12)C(=O)N[C@H](C(=O)N[C@@H](CCCCN)C(=O)N[C@@H](CCCNC(=N)N)C(=O)N[C@@H](CCCCN)C(=O)N[C@@H](CCCNC(=N)N)C(=O)N[C@@H](CCC(N)=O)C(=O)N[C@@H](CCC(N)=O)C(=O)N[C@@H](CS)C(N)=O)[C@@H](C)CC)[C@@H](C)CC)[C@@H](C)O)[C@@H](C)O)C(C)C)C(C)C [Mel-C] | 77–79% | 43.7 (≈ 14.8 µM) | 130 (≈ 44.2 µM) | – |
| CC(C)(C)OO [TBHP] | – | – | – | ROS level, HeLa (HeLa cells): 51.26 RFU; ROS level, NSF (NSF cells): 36.46 RFU; ROS level, C33A (C33A cells): 60.70 RFU |
| CC[C@H](C)[C@H](NC(=O)CN)C(=O)NCC(=O)N[C@@H](C)C(=O)N[C@H](C(=O)N[C@@H](CC(C)C)C(=O)N[C@@H](CCCCN)C(=O)N[C@H](C(=O)N[C@@H](CC(C)C)C(=O)N[C@H](C(=O)N[C@H](C(=O)NCC(=O)N[C@@H](CC(C)C)C(=O)N1CCC[C@H]1C(=O)N[C@@H](C)C(=O)N[C@@H](CC(C)C)C(=O)N[C@H](C(=O)N[C@@H](CO)C(=O)N[C@@H](Cc1c[nH]c2ccccc12)C(=O)N[C@H](C(=O)N[C@@H](CCCCN)C(=O)N[C@@H](CCCNC(=N)N)C(=O)N[C@@H](CCCCN)C(=O)N[C@@H](CCCNC(=N)N)C(=O)N[C@@H](CCC(N)=O)C(=O)N[C@@H](CCC(N)=O)C(N)=O)[C@@H](C)CC)[C@@H](C)CC)[C@@H](C)O)[C@@H](C)O)C(C)C)C(C)C [Mel, Melittin] | 63–72% | – | – | Hydrophobicity as % ACN at elution ([1]; ACN (0.025% TFA) gradient): 67 % ACN |
